Data taken from ChEMBL document CHEMBL1201862, “PubChem BioAssay data set” (2004).
Active and inactive are the calls of the source.

Assays:
[1] = Counterscreen for AddAB inhibitors: absorbance-based bacterial cell-based high throughput dose response assay for inhibitors of bacterial viability. [Related pubchem assays (depositor defined):AID435030, AID449728, AID449731, AID488942, AID488955, AID488956]; format: functional
[2] = target: ATP-dependent molecular chaperone HSP82 (Candida albicans (strain WO-1) (Yeast), UniProt C4YTQ8); test: loss of DOC-induced GRE-beta-galactosidase reporter signal, dose response, Hsp90 inhibitor project, S. cerevisiae, luminescence (AID 2400); format: functional, cell-based;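 note: beta-galactosidase luminescence from glucocorticoid response element reporter as proxy for Hsp90 function; inhibitor potency where signal loss means Hsp90 inhibition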
Chain of ATP-dependent molecular chaperone HSP82 (C4YTQ8 whole entry): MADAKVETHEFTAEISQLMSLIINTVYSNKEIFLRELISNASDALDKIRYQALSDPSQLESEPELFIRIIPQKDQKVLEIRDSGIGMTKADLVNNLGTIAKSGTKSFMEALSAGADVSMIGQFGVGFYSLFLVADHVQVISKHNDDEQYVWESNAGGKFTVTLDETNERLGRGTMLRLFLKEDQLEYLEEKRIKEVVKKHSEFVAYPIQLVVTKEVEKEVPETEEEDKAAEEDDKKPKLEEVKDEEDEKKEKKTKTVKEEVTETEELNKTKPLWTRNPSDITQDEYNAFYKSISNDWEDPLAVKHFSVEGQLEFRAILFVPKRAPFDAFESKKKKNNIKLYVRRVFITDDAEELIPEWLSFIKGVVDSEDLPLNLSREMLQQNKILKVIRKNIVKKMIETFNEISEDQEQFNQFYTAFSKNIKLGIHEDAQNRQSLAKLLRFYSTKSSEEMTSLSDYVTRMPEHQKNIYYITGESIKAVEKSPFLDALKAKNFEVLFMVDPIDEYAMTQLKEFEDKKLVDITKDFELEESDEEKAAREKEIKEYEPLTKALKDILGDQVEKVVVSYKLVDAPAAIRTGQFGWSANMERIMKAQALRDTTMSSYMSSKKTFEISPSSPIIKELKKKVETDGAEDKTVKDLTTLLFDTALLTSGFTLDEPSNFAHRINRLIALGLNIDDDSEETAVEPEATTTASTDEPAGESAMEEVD

INS1 = test: beta cell apoptosis inhibitors, cytokine rescue, dose response, luminescence, retest (AID 449756); format: functional, cell-based; details: Rattus norvegicus;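 note: cell death triggered by IL-1 beta plus TNF-alpha plus IFN-gamma mixture; protective hits raise ATP signal compared with cytokine alone wells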
[3] = target: T1, Replicative DNA helicase DnaB (Mycobacterium tuberculosis, UniProt P9WMR3); test: DnaB intein splicing inhibitors, dose response, biochemical, cell-free fluorescence (AID 449749); format: functional
T1 sequence (P9WMR3 whole entry): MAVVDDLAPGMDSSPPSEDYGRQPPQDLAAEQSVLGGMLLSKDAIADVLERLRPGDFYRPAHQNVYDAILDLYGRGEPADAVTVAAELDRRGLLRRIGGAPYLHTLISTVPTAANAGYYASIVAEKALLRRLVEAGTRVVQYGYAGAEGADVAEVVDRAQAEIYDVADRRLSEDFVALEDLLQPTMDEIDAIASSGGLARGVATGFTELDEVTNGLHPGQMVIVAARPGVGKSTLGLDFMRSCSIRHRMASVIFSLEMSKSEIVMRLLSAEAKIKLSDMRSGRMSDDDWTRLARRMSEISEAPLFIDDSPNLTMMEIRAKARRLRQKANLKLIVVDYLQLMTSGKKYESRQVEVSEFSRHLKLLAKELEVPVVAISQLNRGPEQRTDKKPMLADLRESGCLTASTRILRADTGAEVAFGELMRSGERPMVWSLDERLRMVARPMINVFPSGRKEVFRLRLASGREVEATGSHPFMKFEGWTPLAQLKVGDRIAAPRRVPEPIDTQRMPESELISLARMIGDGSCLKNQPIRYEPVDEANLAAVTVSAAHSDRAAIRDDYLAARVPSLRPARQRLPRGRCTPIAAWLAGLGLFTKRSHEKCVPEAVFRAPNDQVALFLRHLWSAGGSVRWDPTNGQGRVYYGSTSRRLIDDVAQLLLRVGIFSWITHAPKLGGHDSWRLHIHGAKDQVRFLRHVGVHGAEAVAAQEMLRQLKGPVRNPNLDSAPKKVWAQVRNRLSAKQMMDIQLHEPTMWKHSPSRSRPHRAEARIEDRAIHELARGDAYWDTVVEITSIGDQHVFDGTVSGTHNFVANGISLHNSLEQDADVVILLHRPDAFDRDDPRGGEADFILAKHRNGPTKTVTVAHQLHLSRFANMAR

[4] = C. albicans growth with fluconazole, confirmation, fluorescence, retest (AID 2467); format: functional, cell-based
[5] = target: Fibroblast growth factor receptor 1 (Homo sapiens, UniProt P11362); format: functional
[6] = target: Glycogen synthase kinase-3 alpha (Homo sapiens, UniProt P49840); format: functional;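 note: GSK3A result taken from a broad kinome-wide kinase panel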
[7] = target: Hepatocyte growth factor receptor (Homo sapiens, UniProt P08581); format: functional;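 note: kinase panel profiling across the kinome, with MET as the panel member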
Aurora kinase B = Aurora kinase B (Homo sapiens, UniProt Q96GD4); format: functional
[8] = target: Death-associated protein kinase 3 (Homo sapiens, UniProt O43293); format: functional;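 note: measured as one member of a kinome-wide profiling panel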
[9] = target: Proto-oncogene tyrosine-protein kinase receptor Ret (Homo sapiens, UniProt P07949); format: functional;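 note: measured within a kinome-wide profiling panel, RET as the panel member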
Chain of Proto-oncogene tyrosine-protein kinase receptor Ret (P07949 whole entry): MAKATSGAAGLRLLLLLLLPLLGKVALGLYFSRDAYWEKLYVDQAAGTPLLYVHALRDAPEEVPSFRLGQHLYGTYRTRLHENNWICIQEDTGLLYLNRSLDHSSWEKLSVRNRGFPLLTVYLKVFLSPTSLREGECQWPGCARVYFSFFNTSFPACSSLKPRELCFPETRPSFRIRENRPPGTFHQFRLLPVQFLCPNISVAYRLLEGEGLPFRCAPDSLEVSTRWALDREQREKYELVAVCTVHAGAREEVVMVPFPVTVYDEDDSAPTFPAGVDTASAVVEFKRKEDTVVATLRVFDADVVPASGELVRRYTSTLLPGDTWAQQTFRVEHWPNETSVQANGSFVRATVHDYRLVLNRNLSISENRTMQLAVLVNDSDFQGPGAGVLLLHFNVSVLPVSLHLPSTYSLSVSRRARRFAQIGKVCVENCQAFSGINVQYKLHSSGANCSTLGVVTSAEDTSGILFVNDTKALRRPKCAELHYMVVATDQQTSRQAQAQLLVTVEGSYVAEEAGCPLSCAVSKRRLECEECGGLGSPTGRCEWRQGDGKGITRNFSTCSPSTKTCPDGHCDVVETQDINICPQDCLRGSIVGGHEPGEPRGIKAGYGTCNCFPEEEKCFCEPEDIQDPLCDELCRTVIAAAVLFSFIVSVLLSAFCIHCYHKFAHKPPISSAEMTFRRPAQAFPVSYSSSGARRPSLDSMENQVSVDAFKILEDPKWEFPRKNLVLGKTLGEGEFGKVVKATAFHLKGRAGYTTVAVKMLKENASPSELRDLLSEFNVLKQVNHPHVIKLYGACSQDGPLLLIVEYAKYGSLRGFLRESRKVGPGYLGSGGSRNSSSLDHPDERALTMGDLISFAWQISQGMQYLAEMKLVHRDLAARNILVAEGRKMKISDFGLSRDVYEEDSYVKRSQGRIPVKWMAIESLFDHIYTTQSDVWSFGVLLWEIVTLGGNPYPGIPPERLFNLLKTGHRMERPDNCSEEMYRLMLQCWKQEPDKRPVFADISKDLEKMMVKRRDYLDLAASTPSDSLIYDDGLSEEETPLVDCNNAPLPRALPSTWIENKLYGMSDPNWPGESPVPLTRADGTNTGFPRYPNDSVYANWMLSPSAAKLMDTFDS

[10] = target: Dual specificity mitogen-activated protein kinase kinase 1 (Homo sapiens, UniProt Q02750); test: Navigating the Kinome. Panel member name: MAP2K1; format: functional
Chain of Dual specificity mitogen-activated protein kinase kinase 1 (Q02750 whole entry): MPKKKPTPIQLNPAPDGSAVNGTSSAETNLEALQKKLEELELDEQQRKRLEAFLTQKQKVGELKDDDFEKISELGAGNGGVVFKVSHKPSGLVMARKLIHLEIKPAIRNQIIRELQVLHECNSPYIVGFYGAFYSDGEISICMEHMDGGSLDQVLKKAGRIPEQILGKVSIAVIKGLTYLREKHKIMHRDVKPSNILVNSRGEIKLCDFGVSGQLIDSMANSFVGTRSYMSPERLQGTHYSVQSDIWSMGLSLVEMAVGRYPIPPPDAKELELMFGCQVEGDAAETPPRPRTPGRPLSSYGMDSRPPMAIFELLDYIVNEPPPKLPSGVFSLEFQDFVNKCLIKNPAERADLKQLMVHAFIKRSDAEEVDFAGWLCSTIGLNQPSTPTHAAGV

[11] = target: Cyclin-dependent kinase 8 (Homo sapiens, UniProt P49336); test: Navigating the Kinome. Panel member name: CDK8; format: functional
Chain of Cyclin-dependent kinase 8 (P49336 whole entry): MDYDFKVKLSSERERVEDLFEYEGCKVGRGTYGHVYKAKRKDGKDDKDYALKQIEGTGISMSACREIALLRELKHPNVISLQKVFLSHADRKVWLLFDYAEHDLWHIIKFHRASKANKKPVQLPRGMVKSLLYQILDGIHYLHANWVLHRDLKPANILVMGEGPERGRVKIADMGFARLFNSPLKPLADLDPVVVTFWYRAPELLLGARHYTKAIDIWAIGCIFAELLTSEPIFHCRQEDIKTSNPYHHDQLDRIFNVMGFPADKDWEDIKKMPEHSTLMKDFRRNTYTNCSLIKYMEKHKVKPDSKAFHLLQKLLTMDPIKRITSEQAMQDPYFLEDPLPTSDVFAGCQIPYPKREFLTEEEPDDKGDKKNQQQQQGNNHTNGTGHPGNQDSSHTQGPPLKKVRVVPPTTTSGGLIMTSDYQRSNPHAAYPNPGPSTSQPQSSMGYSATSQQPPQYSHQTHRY

[12] = target: G protein-coupled receptor kinase 5 (Homo sapiens, UniProt P34947); test: Navigating the Kinome. Panel member name: GPRK5; format: functional
Chain of G protein-coupled receptor kinase 5 (P34947 whole entry): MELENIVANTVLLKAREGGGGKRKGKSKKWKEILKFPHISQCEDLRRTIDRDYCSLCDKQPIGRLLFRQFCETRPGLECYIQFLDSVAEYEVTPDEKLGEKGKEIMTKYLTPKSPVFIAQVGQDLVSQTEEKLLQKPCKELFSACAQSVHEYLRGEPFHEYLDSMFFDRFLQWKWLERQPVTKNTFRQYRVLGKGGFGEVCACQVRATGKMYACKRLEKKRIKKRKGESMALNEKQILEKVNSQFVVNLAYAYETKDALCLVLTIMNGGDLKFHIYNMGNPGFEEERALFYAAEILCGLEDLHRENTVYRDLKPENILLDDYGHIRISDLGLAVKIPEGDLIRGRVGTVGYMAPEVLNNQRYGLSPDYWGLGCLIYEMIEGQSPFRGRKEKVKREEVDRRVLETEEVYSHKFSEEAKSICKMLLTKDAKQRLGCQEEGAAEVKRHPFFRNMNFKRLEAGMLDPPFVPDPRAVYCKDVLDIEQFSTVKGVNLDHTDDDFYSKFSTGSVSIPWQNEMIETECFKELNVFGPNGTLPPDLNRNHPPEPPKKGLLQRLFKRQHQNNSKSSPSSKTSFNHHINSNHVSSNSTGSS

[13] = target: Vascular endothelial growth factor receptor 2 (Homo sapiens, UniProt P35968); format: functional
[14] = target: Receptor-type tyrosine-protein kinase FLT3 (Homo sapiens, UniProt P36888); format: functional;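 note: FLT3 was tested as one member of a kinome-wide kinase panel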
[15] = target: Glycogen synthase kinase-3 beta (Homo sapiens, UniProt P49841); format: functional;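 note: value comes from a broad kinome profiling panel, with GSK3B as the panel member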
Chain of Glycogen synthase kinase-3 beta (P49841 whole entry): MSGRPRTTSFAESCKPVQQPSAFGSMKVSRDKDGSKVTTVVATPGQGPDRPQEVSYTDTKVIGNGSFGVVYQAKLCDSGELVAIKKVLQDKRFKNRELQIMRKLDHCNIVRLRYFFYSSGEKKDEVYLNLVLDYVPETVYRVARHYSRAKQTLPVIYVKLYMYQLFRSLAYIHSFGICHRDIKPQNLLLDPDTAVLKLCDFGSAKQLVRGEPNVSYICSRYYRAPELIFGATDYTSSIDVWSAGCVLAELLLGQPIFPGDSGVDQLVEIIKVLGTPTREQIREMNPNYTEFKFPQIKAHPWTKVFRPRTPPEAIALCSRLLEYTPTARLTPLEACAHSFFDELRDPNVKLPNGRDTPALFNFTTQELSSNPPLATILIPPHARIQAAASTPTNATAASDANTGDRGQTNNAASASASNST

[16] = target: Tyrosine-protein kinase ABL1 (Homo sapiens, UniProt P00519); format: functional
Chain of Tyrosine-protein kinase ABL1 (P00519 whole entry): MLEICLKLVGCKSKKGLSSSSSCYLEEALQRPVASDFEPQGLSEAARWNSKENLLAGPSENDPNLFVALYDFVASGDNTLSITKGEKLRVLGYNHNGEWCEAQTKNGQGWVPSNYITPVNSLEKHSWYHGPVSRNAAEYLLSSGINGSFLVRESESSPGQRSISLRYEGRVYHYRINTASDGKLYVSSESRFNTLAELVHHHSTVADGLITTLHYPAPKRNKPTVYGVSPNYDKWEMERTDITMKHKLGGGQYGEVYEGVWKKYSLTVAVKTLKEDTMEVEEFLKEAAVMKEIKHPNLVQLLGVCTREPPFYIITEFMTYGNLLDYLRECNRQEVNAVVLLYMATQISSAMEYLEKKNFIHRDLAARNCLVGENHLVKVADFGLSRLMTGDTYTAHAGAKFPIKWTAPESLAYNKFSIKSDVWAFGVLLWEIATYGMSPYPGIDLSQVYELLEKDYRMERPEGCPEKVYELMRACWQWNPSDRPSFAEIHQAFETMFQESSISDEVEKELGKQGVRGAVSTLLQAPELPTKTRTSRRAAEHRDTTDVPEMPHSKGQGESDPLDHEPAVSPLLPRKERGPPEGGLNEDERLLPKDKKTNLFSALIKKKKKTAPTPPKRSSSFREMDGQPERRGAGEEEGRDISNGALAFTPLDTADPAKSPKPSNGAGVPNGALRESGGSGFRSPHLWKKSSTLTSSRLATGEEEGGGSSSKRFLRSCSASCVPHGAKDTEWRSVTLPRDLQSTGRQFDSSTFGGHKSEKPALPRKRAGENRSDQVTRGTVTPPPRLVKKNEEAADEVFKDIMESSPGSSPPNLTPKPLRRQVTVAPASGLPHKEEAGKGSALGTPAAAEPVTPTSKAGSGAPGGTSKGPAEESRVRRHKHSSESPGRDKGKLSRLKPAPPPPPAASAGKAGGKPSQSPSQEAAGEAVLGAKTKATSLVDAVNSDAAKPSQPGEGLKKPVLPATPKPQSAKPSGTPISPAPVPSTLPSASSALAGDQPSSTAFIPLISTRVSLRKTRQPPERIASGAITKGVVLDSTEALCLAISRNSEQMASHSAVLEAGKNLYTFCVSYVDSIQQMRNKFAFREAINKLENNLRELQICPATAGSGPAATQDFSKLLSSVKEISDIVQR

[17] = target: T2, Sentrin-specific protease 8 (Homo sapiens, UniProt Q96LD8); format: functional;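 note: luminescence read-out of SENP8 inhibition, dose-response confirmation following an ultra-high-throughput screen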
T2 sequence (Q96LD8 whole entry): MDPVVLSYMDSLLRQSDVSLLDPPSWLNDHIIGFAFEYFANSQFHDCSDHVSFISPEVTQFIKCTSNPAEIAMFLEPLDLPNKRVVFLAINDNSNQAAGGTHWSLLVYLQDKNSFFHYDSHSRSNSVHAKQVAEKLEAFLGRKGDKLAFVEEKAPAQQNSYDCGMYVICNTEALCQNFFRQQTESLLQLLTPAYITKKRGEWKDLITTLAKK

HT-1080 = test: cytotoxicity in HT1080 fibrosarcoma cells, cell-based, fluorescence readout (AID 620); format: functional; details: Homo sapiens

CN1CCN(C(c2ccc(C(F)(F)F)cc2)c2cc(Cl)c3cccnc3c2O)CC1 (stereo unspecified)
IC50 [1]: 105 µM (inactive) | EC50 [2]: 6.72 µM (active) | AC50 (INS1): 3.18 µM (active) | AC50 [3]: 11.9 µM (active) | EC50 [4]: 666 nM (active)

O=C(NC(CCO)c1ccccc1)c1ccc(-c2ccncc2)cc1 (stereo unspecified)
Ki [5]: > 3.98 µM (inactive) | Ki [6]: 1.26 µM (active) | Ki [7]: > 2.51 µM (inactive) | Ki (Aurora kinase B): > 3.98 µM (inactive) | Ki [8]: > 5.01 µM (inactive) | Ki [9]: > 3.16 µM (inactive) | Ki [10]: > 3.16 µM (inactive) | Ki [11]: 2.51 µM (active) | Ki [12]: > 3.98 µM (inactive) | Ki [13]: > 2.51 µM (inactive) | Ki [14]: > 3.16 µM (inactive) | Ki [15]: 1.26 µM (active) | Ki [16]: > 3.98 µM (inactive)

NC(=O)c1c(NC(=O)c2cc3ccccc3o2)sc2c1CCC2
IC50 [17]: 12.4 µM (active) | EC50 (HT-1080): > 50 µM (not active) | EC50 (cells): > 67.5 µM (inactive)
